Reference: patent US12655116B2, “Substituted isophthalic acid diamides” (Bayer Aktiengesellschaft, priority 2020, dated 2026)

Tests used:
VERPE [1] = test: Post-emergence herbicidal action against VERPE; type: in vivo, Veronica persica; settings: 20 g/ha
Summary of the method: (§1)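 Sandy loam, greenhouse; treatment 2–3 weeks after sowing, one-leaf stage. Aqueous suspension or emulsion from WP/EC sprayed on foliage (600–800 l/ha, 0.2% wetting agent). Readout: visual % action, ~3 weeks.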

MATIN [2] = test: Pre-emergence herbicidal action against MATIN; type: in vivo, Matricaria inodora; settings: Tripleurospermum inodorum, 504 h
Summary of the method: (§2)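 Seeds sown in sandy loam, soil-covered; compound sprayed on soil surface pre-emergence. Application: WP/EC, 600–800 l/ha, 0.2% wetting agent. Readout: visual % damage at 3 weeks.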

VIOTR [3] = test: Pre-emergence herbicidal action against VIOTR; type: in vivo, Viola tricolor
Summary of the method: as §2

VIOTR [4] = test: Post-emergence herbicidal action against VIOTR; type: in vivo, Viola tricolor; settings: Viola tricolor, 504 h, 20 g/ha
Summary of the method: as §1

ABUTH [5] = test: Pre-emergence herbicidal action against ABUTH; type: in vivo, Abutilon theophrasti; settings: Abutilon theophrasti, 504 h
Summary of the method: as §2

ECHCG [6] = test: Post-emergence herbicidal action against ECHCG; type: in vivo, Echinochloa crus-galli; settings: dosage 20 g/ha
Summary of the method: as §1

ABUTH [7] = test: Post-emergence herbicidal action against ABUTH; type: in vivo, Abutilon theophrasti; settings: Abutilon theophrasti, 504 h, visual assessment about 3 weeks after treatment vs untreated controls
Summary of the method: as §1

AMARE = test: Pre-emergence herbicidal action against AMARE; type: in vivo, Amaranthus retroflexus
Summary of the method: as §2

PHBPU [8] = test: Pre-emergence herbicidal action against PHBPU; type: in vivo, Pharbitis purpurea; settings: dosage 80 g/ha
From the text: Seeds of monocotyledonous and dicotyledonous weed plants and crop plants are laid out in sandy loam soil in wood-fiber pots and covered with soil. The compounds of the invention, formulated in the form of wettable powders (WP) or as emulsion concentrates (EC), are then applied to the surface of the covering soil in the form of an aqueous suspension or emulsion at a water application rate equivalent to 600 to 800 l/ha, with addition of 0.2% wetting agent. After the treatment, the pots are placed in a greenhouse and kept under good growth conditions for the trial plants. The damage to the test plants is scored visually after a test period of 3 weeks by comparison with untreated controls (herbicidal activity in percent (%): 100% activity=the plants have died, 0% activity=like control plants). […] The tables below illustrate, in an illustrative manner, the post-emergence herbicidal action of the compounds of the invention, the herbicidal activity being stated in percent.

ECHCG [9] = test: Pre-emergence herbicidal action against ECHCG; type: in vivo, Echinochloa crus-galli; settings: 80 g/ha
Summary of the method: as §2

MATIN [10] = test: Post-emergence herbicidal action against MATIN; type: in vivo, Matricaria inodora; settings: Tripleurospermum inodorum, 504 h
Summary of the method: as §1

VERPE [11] = test: Pre-emergence herbicidal action against VERPE; type: in vivo, Veronica persica
Summary of the method: as §2

DIGSA [12] = test: Pre-emergence herbicidal action against DIGSA; type: in vivo, Digitaria sanguinalis
Summary of the method: as §2

SETVI = test: Pre-emergence herbicidal action against SETVI; type: in vivo, Setaria viridis
Summary of the method: as §2

PHBPU [13] = test: Post-emergence herbicidal action against PHBPU; type: in vivo, Pharbitis purpurea; settings: Ipomoea purpurea, 504 h
Summary of the method: as §1

DIGSA [14] = test: Post-emergence herbicidal action against DIGSA; type: in vivo, Digitaria sanguinalis; settings: Digitaria sanguinalis, 504 h
Summary of the method: as §1

ALOMY = test: Pre-emergence herbicidal action against ALOMY; type: in vivo, Alopecurus myosuroides; settings: 80 g/ha, pre-emergence, scored visually after 3 weeks vs untreated controls (100% = plants have died, 0% = like control plants)
Summary of the method: as §2

[15] = 80 g/ha, scored visually after 3 weeks vs untreated controls (100% = plants have died, 0% = like control plants)

CCNC(=O)c1c(C(F)(F)F)ccc(C(=O)Nc2nnnn2C)c1C1CC1 [Example 1-287]
90%: pest or weed control at 5 g/ha (ABUTH [7]; dosage 5 g/ha) | pest or weed control at 80 g/ha (ECHCG [9]; Echinochloa crus-galli, 504 h) | pest or weed control at 20 g/ha (MATIN [10]; dosage 20 g/ha) | pest or weed control at 80 g/ha (VERPE [11]; Veronica persica, 504 h, dosage 80 g/ha) | pest or weed control at 20 g/ha (SETVI; Setaria viridis, 504 h, dosage 20 g/ha) | pest or weed control at 5 g/ha (PHBPU [13]; dosage 5 g/ha)
80%: pest or weed control at 20 g/ha (VERPE [1]; Veronica persica, 504 h) | pest or weed control at 20 g/ha (VIOTR [4]) | pest or weed control at 5 g/ha (MATIN [10]; dosage 5 g/ha)
100%: pest or weed control at 20 g/ha (MATIN [2]; dosage 20 g/ha) | pest or weed control at 80 g/ha (MATIN [2]; dosage 80 g/ha) | pest or weed control at 20 g/ha (VIOTR [3]; Viola tricolor, 504 h, dosage 20 g/ha) | pest or weed control at 80 g/ha (VIOTR [3]; Viola tricolor, 504 h, dosage 80 g/ha) | pest or weed control at 80 g/ha (ABUTH [5]; [15]) | pest or weed control at 20 g/ha (ABUTH [5]; dosage 20 g/ha, scored visually after 3 weeks vs untreated controls, 100% = plants have died, 0% = like control plants, read-out: Pre-emergence action against ABUTH (herbicidal activity in percent)) | pest or weed control at 20 g/ha (ECHCG [6]; Echinochloa crus-galli, 504 h) | pest or weed control at 20 g/ha (ABUTH [7]; dosage 20 g/ha) | pest or weed control at 20 g/ha (AMARE; Amaranthus retroflexus, 504 h, 20 g/ha, scored visually after 3 weeks vs untreated controls, 100% = plants have died, 0% = like control plants) | pest or weed control at 80 g/ha (AMARE; Amaranthus retroflexus, 504 h, 80 g/ha, scored visually after 3 weeks vs untreated controls, 100% = plants have died, 0% = like control plants) | pest or weed control at 80 g/ha (PHBPU [8]; Ipomoea purpurea, 504 h) | pest or weed control at 20 g/ha (DIGSA [12]; Digitaria sanguinalis, 504 h, dosage 20 g/ha) | pest or weed control at 80 g/ha (DIGSA [12]; Digitaria sanguinalis, 504 h, dosage 80 g/ha) | pest or weed control at 80 g/ha (SETVI; Setaria viridis, 504 h, dosage 80 g/ha) | pest or weed control at 20 g/ha (PHBPU [13]; dosage 20 g/ha) | pest or weed control at 5 g/ha (DIGSA [14]; 5 g/ha) | pest or weed control at 20 g/ha (DIGSA [14]; 20 g/ha)

CCn1nnnc1NC(=O)c1ccc(C(F)(F)F)c(C(=O)NCC2CCCO2)c1C (centres unmarked) [Example 2-37]
90%: Pre-emergence action against ALOMY (herbicidal activity) (ALOMY) | Pre-emergence action against AMARE in % (AMARE; 20 g/ha, scored visually after 3 weeks vs untreated controls, 100% = plants have died, 0% = like control plants)
80%: Post-emergence action against VERPE in % (VERPE [1]) | Post-emergence action against ECHCG in % (ECHCG [6]) | Pre-emergence action against PHBPU in % (PHBPU [8]) | Pre-emergence action against ECHCG in % (ECHCG [9]) | Pre-emergence action against VERPE in % (VERPE [11]; dosage 20 g/ha) | Pre-emergence action against VERPE in % (VERPE [11]; dosage 80 g/ha)
100%: Pre-emergence action against VIOTR in % (VIOTR [3]; dosage 80 g/ha) | Pre-emergence action against AMARE in % (AMARE; [15]) | Pre-emergence action against DIGSA in % (DIGSA [12]; dosage 80 g/ha) | Pre-emergence action against SETVI in % (SETVI; dosage 80 g/ha)
